Laboratory results from US11078245B2, “Colon and pancreas cancer peptidomimetics” (PRECISION BIOLOGICS, INC., priority 2010, dated 2021).
Values belong to the molecule of their own block, whether it stands above or below them.

Legend:
CFPAC1 cells = assay: NEO-101-coupled Dynal beads rosette assay; assay type: cell-based, human; settings: for Positive rosette cells (%): Dynal beads coupled with NEO-101, premixed with M13 clone
Procedure: The M13 clones identified by the biopanning were also immunoassayed using magnetic beads. Aliquots of 5 μl M13 phage (10^11/10 μl) were mixed with 10 μl NEO-101-coupled Dynal® beads at RT for 20 min on a rotator. CFPAC1 cells (30 μl of 10^6 cells/ml) were added and incubated at 4° C. for 30 min. Rosetted cells were counted (>8 beads/cell).

Colon Ag = assay: ELISA of NEO-101 binding inhibition by peptides against Colon Ag; set-up: species or system human
Procedure: An ELISA analysis of the NEO-101 binding inhibition by peptide 4-1-3-C9 and 4-1-4-C12 against Colon Ag was conducted. Aliquots of 100 μl/well Colon Ag (3 μg/ml in CBS buffer) in 96 well plate were incubated at 4° C. overnight, and the wells washed three times with TBST (0.05% Tween). The wells were blocked with 200 μl of 1% milk at RT for 1 hour. A pre-mix of NEO-101-biotin and test peptide was added at 100 μl/well and incubated at RT of 1 hour, followed by three washes with TBST. Streptavidin-HRP (100 μl of 1:2000 dilution) was added and the reaction incubated at RT for 1 hour, and the wells washed three time. TMB was added, and the wells were read at 450 nm. The control was NEO-101-biotin.

NEO-101 = assay: Biotinylated peptide binding ELISA; settings: biotinylated peptide on NEO-101 coated plate
Procedure: To solve the poor binding of peptides to 96 well plate, peptides were biotinylated using EZ-link micro NHS Biotinylation kit (Pierce Cat #21955), and labeling efficiency checked by dot blot (50%). The biotinylated peptide binding was analyzed in ELISA by adding 100 μl/well of NEO-101 (1 μg/ml) in CBS buffer to 96 well plate and incubating at 4° C. overnight, followed by three washes with TBST (0.05% Tween). The solution was blocked with 200μ/of 1% milk in TBS at RT for 20 min. Aliquots of 100 μl peptide-biotin ([…]) in 0.1% milk-TBS were added, and incubated at RT of 2 hr, followed by three washes with TBST. Streptavidin-HRP (100 μl of 1:2000 diluted in 1:10 diluted blocking buffer) was added, and the wells incubated at RT for 1 hr, followed by three washed. TMB was then added, and the wells were read at 450 nm. Positive controls for NPC-1C binding used 4B6-biotin. The results are shown in FIG. 11, which indicates biotinylated peptides bind to NPC-1C coated plate.

[1] = system: CFPAC1 culture supernatant; assay: Peptide competition ELISA on CFPAC1 culture supernatant-coated plates; assay type: binding, human
Source text: FIG. 15A is a bar graph showing the percent blocking of NEO-101 by peptides (identified by biopanning an M13 phage library) on CFPAC1 culture supernatant-coated plates. FIG. 15B is a bar graph of OD values showing blocking of NEO-101 by peptides (identified by biopanning an M13 phage library) on CFPAC1 culture supernatant-coated plates.
Next, the inhibition of NEO-101 beads binding to CFAC1 Cells (rosetted cells) by peptides 4-1-4C12 and 4-1-4C12-R2 was investigated, as shown in FIG. 14A. FIG. 14B was the results from positive control with 4B6 in competitive beads assay. […] Therefore, the peptide 4-1-4-C12 is a peptidomimetic of the NPC-1 epitope and may be used to elicit a NPC-1 specific antibodies.

NEO-101 antibody = assay: Immunofluorescence of 293T cells transfected with MUC5AC truncation constructs; assay type: cell-based; settings: 2 μg/ml NEO-101 antibody
Procedure: Six truncation constructs were made representing C-terminal truncations of the full-length MUC5AC protein (SEQ ID NO: 36).
293T cells were cultured on FBS coated cover slips for 24 hours. Cells were transiently transfected with 2 μg of MUC5AC constructs of Table 8 with LIPOFECTAMINE®. Cells were grown for about 72 hours, fixed with about 4% PFA in PBS, washed with PBS, permeabilized with about 0.2% […] in PBS and washed with PBS. Cells were then blocked with about 1% BSA in PBS, and about 2 μg/ml NEO-101 antibody was added to sample wells and about 2 μg/ml of an Isotype control was added for 1 hour at room temp. Cells were washed with PBS and second anti human-FITC antibody (1:500) was added to all wells and to the second antibody control wells. Cells were washed and mounted on slides with DAPI hard mount. Cover slides were allowed to sit over night at about 4° C. Slides were visualized with a Nikon Eclipse Ti microscope with an Andor camera. At least 3 random fields were counted per transfection.

Molecule: YSHSWHTLPEKSLDENGGGS (NPC-1 epitope peptidomimetic) [Peptide 4-1-2-C5]
blocking of NEO-101-coupled beads binding to CFPAC1 cells (CFPAC1 cells): blocked
Positive rosette cells (%) (CFPAC1 cells): 0%

Blocking of NEO-101 antibody binding to colon Ag (Colon Ag): No
NEO-101 binding (NEO-101): Yes
Molecule: YSHSWHTLPESGEVTSGGGS (NPC-1 epitope peptidomimetic) [Peptide 4-1-3-C8]
blocking of NEO-101-coupled beads binding to CFPAC1 cells (CFPAC1 cells): blocked
Positive rosette cells (%) (CFPAC1 cells): 0%

Blocking of NEO-101 antibody binding to colon Ag (Colon Ag): No
NEO-101 binding (NEO-101): No
Molecule: YSHSVHAIEDNWSPRGGGGS (NPC-1 epitope peptidomimetic) [Peptide 4-1-3-C11, reference compound]
Positive rosette cells (%) (CFPAC1 cells): 38%

competition against bound CFPAC1 antigen with NEO-101 binding [1]: significant competition
Molecule: SLPDDWFRYINYSLPDDWFRYINY (NPC-1 epitope peptidomimetic) [Peptide 4-1-4C12-R2]

competition against bound CFPAC1 antigen with NEO-101 binding [1]: significant competition
Blocking of NEO-101 antibody binding to colon Ag (Colon Ag): Yes
NEO-101 binding (NEO-101): Yes
Molecule: YSHSFPEDYFRYTNQKGGGS (NPC-1 epitope peptidomimetic) [Peptide 4-1-3-C9]
blocking of NEO-101-coupled beads binding to CFPAC1 cells (CFPAC1 cells): blocked
Positive rosette cells (%) (CFPAC1 cells): 0%

Blocking of NEO-101 antibody binding to colon Ag (Colon Ag): Yes
NEO-101 binding (NEO-101): Yes
Molecule: YSHSSLPDDWFRYINYGGGS (NPC-1 epitope peptidomimetic) [Peptide 4-1-4-C12]
blocking of NEO-101-coupled beads binding to CFPAC1 cells (CFPAC1 cells): blocked
Positive rosette cells (%) (CFPAC1 cells): 0%
competition against bound CFPAC1 antigen with NEO-101 binding [1]: higher inhibition in low concentration comparing with 4-1-3C9

B1: Construct 1-187: C-terminal truncation construct of MUC5AC, SEQ ID NO: 48 (protein)
chain: ATMSVGRRKLALLWALALALACTTTHSQPVTRDCHLRCTWTKWFDVDFPSPGPHGGDKETYNNIIRSGEKICRRPEEITRLQCRAESHPEVSIEHLGQVVQCSREEGLVCRNQDQQGPFKMCLNYEVRVLCCETPKGCPVTSTPVTAPSTPSGRATSPTQSTSSWQKSRTTTLVTTSTTSTPQTSTT
modifications: MUC5AC truncation construct (187)
Binds NPC-1? (NEO-101 antibody): binding activity

B2: 1-187 (protein)
chain: B1 chain
modifications: MUC5AC truncation construct (187)
Binds NPC-1? (NEO-101 antibody): Yes

B3: Construct 1-289: C-terminal truncation construct of MUC5AC, SEQ ID NO: 49 (protein)
chain: ATMSVGRRKLALLWALALALACTTTHSQPVTRDCHLRCTWTKWFDVDFPSPGPHGGDKETYNNIIRSGEKICRRPEEITRLQCRAESHPEVSIEHLGQVVQCSREEGLVCRNQDQQGPFKMCLNYEVRVLCCETPKGCPVTSTPVTAPSTPSGRATSPTQSTSSWQKSRTTTLVTTSTTSTPQTSTTSAPTTSTTSAPTTSTTSAPTTSTTSTPQTSISSAPTSSTTSAPTSSTISARTTSIISAPTTSTTSSPTTSTTSATTTSTTSAPTSSTTSTPQTSKTSAATSS
modifications: MUC5AC truncation construct (289)
Binds NPC-1? (NEO-101 antibody): binding activity

B4: 1-289 (protein)
chain: B3 chain
modifications: MUC5AC truncation construct (289)
Binds NPC-1? (NEO-101 antibody): Yes

B5: Construct 1-338: C-terminal truncation construct of MUC5AC, SEQ ID NO: 50 (protein)
chain: ATMSVGRRKLALLWALALALACTTTHSQPVTRDCHLRCTWTKWFDVDFPSPGPHGGDKETYNNIIRSGEKICRRPEEITRLQCRAESHPEVSIEHLGQVVQCSREEGLVCRNQDQQGPFKMCLNYEVRVLCCETPKGCPVTSTPVTAPSTPSGRATSPTQSTSSWQKSRTTTLVTTSTTSTPQTSTTSAPTTSTTSAPTTSTTSAPTTSTTSTPQTSISSAPTSSTTSAPTSSTISARTTSIISAPTTSTTSSPTTSTTSATTTSTTSAPTSSTTSTPQTSKTSAATSSTTSSSGTTPSPVTTTSTASVSKTSTSHVSVSKTTHSQPVTRCTHHHHHH
modifications: MUC5AC truncation construct (338)
Binds NPC-1? (NEO-101 antibody): binding activity

B6: 1-338 (protein)
chain: B5 chain
modifications: MUC5AC truncation construct (338)
Binds NPC-1? (NEO-101 antibody): Yes

B7: 1-136 (protein)
chain: ATMSVGRRKLALLWALALALACTTTHSQPVTRDCHLRCTWTKWFDVDFPSPGPHGGDKETYNNIIRSGEKICRRPEEITRLQCRAESHPEVSIEHLGQVVQCSREEGLVCRNQDQQGPFKMCLNYEVRVLCCETPK
modifications: MUC5AC truncation construct (136)
Binds NPC-1? (NEO-101 antibody): No

B8: Construct 1-85: C-terminal truncation construct of MUC5AC, SEQ ID NO: 45 (protein)
chain: ATMSVGRRKLALLWALALALACTTTHSQPVTRDCHLRCTWTKWFDVDFPSPGPHGGDKETYNNIIRSGEKICRRPEEITRLQCRA
modifications: MUC5AC truncation construct (85)
Binds NPC-1? (NEO-101 antibody): no binding

B9: 1-85 (protein)
chain: B8 chain
modifications: MUC5AC truncation construct (85)
Binds NPC-1? (NEO-101 antibody): No

B10: 1-151 (protein)
chain: ATMSVGRRKLALLWALALALACTTTHSQPVTRDCHLRCTWTKWFDVDFPSPGPHGGDKETYNNIIRSGEKICRRPEEITRLQCRAESHPEVSIEHLGQVVQCSREEGLVCRNQDQQGPFKMCLNYEVRVLCCETPKGCPVTSTPVTAPSTP
modifications: MUC5AC truncation construct (151)
Binds NPC-1? (NEO-101 antibody): Yes
